Experimental data reported in patent US6645970B2, “Indolylmaleimide derivatives” (Novartis AG, priority 2000, dated 2003).
Each block holds one compound with its values, some of them ahead of it.

Experiments:
Human recombinant PKCε = biological target: T1, Human recombinant PKCε (Homo sapiens, UniProt Q02156); test: Protein Kinase Cε Assay; type: biochemical; settings: 10 μM ATP
T1 construct: purchased Oxford Biomedical Research
T1 sequence (Q02156 1-737): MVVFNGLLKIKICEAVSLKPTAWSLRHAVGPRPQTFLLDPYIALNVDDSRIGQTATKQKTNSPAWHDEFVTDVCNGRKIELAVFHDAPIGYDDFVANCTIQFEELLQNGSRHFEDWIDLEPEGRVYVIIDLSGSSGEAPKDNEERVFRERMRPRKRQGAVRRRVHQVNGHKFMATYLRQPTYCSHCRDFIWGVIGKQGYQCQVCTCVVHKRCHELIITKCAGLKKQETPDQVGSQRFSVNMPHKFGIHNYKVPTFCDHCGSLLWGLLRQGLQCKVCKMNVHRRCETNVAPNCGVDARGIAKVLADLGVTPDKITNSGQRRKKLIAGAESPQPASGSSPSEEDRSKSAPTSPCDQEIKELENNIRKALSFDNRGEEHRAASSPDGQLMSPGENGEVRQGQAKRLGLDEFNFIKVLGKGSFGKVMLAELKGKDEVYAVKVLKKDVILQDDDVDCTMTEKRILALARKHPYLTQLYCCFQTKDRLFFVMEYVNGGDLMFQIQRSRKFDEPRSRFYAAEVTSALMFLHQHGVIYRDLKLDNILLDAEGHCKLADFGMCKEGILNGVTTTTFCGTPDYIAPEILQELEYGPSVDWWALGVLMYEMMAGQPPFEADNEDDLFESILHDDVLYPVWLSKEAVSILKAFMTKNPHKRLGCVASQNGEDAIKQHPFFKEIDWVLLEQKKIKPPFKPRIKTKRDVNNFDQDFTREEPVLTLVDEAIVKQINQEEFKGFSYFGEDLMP
Description: (§1) The compounds of formula I are tested for their activity on different PKC isoforms according to a published method (D. Geiges et al. Biochem. Pharmacol. 1997;53:865-875) The assay is performed in a 96-well polypropylene microtiterplate (Costar 3794) that has been previously siliconized with Sigmacote (Sigma SL-2). The reaction mixture (50 μl) contains 10 μl the relevant PKC isozyme together with 25 μl of the test compound and 15 μl of a mix solution that contains 200 μg/ml protamine sulfate, 10 mM Mg(NO3)2, 10 μM ATP (Boehringer 519987) and 3750 Bq of ^33P-ATP (Hartmann Analytic SFC301, 110TBq/mmol) in 20 mM Tris-buffer pH 7.4+0.1% BSA. Incubation is performed for 15 min at 32° C. in a microtiterplate shaking incubator (Biolabo Scientific Instruments). Reaction is stopped by adding 10 μl of 0.5 M Na2EDTA, pH 7.4. 50 μl of mixture are pipetted onto a pre-wetted phosphocellulose paper (Whatmann 3698-915) under gentle pressure. Non-incorporated ATP is washed away with 100 μl bi-dist H2O. The paper is washed twice in 0.5% H3PO4 for 15 min followed by 5 min in EtOH. Thereafter the paper is dryed and placed in an omnifilter (Packard 6005219), and overlayed with 10 μl/well of Microscint-O (Packard 6013611) before counting in a Topcount radioactivity counter (Packard). […] IC50 value are calculated from the graph by sigmoidal curve fitting. […]

Human recombinant PKCθ = Human recombinant PKCθ (Homo sapiens, UniProt Q04759); test: Protein Kinase C θ Assay; type: biochemical; settings: 10 μM ATP
Human recombinant PKCθ, sequence (Q04759 whole entry): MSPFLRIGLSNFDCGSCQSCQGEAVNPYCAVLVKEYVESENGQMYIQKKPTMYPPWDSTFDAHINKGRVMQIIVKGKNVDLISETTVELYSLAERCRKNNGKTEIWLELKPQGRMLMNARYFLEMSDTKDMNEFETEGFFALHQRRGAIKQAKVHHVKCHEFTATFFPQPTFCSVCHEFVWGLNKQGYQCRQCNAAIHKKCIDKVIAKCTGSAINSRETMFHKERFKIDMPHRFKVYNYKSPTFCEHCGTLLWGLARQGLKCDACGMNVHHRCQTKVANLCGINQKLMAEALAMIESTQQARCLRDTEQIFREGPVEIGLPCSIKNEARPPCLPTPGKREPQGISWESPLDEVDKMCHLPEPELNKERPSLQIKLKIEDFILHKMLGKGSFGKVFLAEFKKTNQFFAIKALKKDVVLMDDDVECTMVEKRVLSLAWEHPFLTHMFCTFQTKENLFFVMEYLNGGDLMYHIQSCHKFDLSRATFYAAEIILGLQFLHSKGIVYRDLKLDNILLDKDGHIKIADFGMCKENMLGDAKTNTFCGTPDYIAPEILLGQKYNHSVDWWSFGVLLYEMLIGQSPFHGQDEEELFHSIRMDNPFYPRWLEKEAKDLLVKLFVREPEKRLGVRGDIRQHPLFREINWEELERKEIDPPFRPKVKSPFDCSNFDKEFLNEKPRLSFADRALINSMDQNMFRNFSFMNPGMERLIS
Excerpt: Human recombinant PKCθ is used under the assay conditions as described above.

[1] = test system: Jurkat cells transfected with a human interleukin-2 promoter/reporter gene construct; test: CD28 costimulation assay; type: cell-based; settings: stimulated Jurkat cells, IL-2 promoter luciferase reporter, 5.5 hours
[2] = test system: spleen cells from CBA and BALB/c mice; test: Allogeneic Mixed Lymphocyte Reaction (MLR); type: cell-based; settings: Mus musculus, two-way MLR, 3H-thymidine incorporation
Description: The two-way MLR is performed according to standard procedures (J. Immunol. Methods, 1973, 2, 279 and Meo T. et al., Immunological Methods, New York, Academic Press, 1979, 227-39). Briefly, spleen cells from CBA and BALB/c mice (1.6×10^5 cells from each strain per well in flat bottom tissue culture microtiter plates, 3.2×10^5 in total) are incubated in RPMI medium containing 10% FCS, 100 U/ml penicillin, 100 μg/mI streptomycin (Gibco BRL, Basel, Switzerland), 50 μM 2-mercaptoethanol (Fluka, Buchs, Switzerland) and serially diluted compounds. Seven three-fold dilution steps in duplicates per test compound are performed. After four days of incubation 1 μCi ^3H-thymidine is added. Cells are harvested after an additional five-hour incubation period, and incorporated ^3H-thymidine is determined according to standard procedures. Background values (low control) of the MLR are the proliferation of BALB/c cells alone. Low controls are subtracted from all values. High controls without any sample are taken as 100% proliferation. Percent inhibition by the samples is calculated, and the concentrations required for 50% inhibition (IC50 values) are determined.

Human recombinant PKCα = biological target: T2, Human recombinant PKCα (Homo sapiens, UniProt P17252); test: Protein Kinase Cα Assay; type: biochemical; settings: 10 μM ATP
T2 construct: purchased Oxford Biomedical Research
Description: The compounds of formula I are tested for their activity on different PKC isoforms according to a published method (D. Geiges et al. Biochem. Pharmacol. 1997;53:865-875) The assay is performed in a 96-well polypropylene microtiterplate (Costar 3794) that has been previously siliconized with Sigmacote (Sigma SL-2). The reaction mixture (50 μl) contains 10 μl the relevant PKC isozyme together with 25 μl of the test compound and 15 μl of a mix solution that contains 200 μg/ml protamine sulfate, 10 mM Mg(NO3)2, 10 μM ATP (Boehringer 519987) and 3750 Bq of ^33P-ATP (Hartmann Analytic SFC301, 110TBq/mmol) in 20 mM Tris-buffer pH 7.4+0.1% BSA. Incubation is performed for 15 min at 32° C. in a microtiterplate shaking incubator (Biolabo Scientific Instruments). Reaction is stopped by adding 10 μl of 0.5 M Na2EDTA, pH 7.4. 50 μl of mixture are pipetted onto a pre-wetted phosphocellulose paper (Whatmann 3698-915) under gentle pressure. Non-incorporated ATP is washed away with 100 μl bi-dist H2O. The paper is washed twice in 0.5% H3PO4 for 15 min followed by 5 min in EtOH. Thereafter the paper is dryed and placed in an omnifilter (Packard 6005219), and overlayed with 10 μl/well of Microscint-O (Packard 6013611) before counting in a Topcount radioactivity counter (Packard). […] IC50 value are calculated from the graph by sigmoidal curve fitting.

[3] = test system: Rat Heart transplantation (graft survival); test: Rat Heart transplantation; type: in vivo; settings: Lewis and BN strains, 30 mg/kg/day
Description: The strain combination used: Male Lewis (RT^1 haplotype) and BN (RT^1 haplotype). The animals are anaesthetised using inhalational isofluorane. […] The aorta is ligated and divided distal to the first branch and the brachiocephalic trunk is divided at the first bifurcation. The left pulmonary artery is ligated and divided and the right side divided but left open. All other vessels are dissected free, ligated and divided and the donor heart is removed into iced saline.
The recipient is prepared by dissection and cross-clamping of the infra-renal abdominal aorta and vena cava. The graft is implanted with end-to-side anastomoses, using 10/0 monofilament suture, between the donor brachiocephalic trunk and the recipient aorta and the donor right pulmonary artery to the recipient vena cava. The clamps are removed, the graft tethered retroabdominally, the abdominal contents washed with warm saline and the animal is closed and allowed to recover under a heating lamp. Graft survival is monitored by daily palpation of the beating donor heart through the abdominal wall. Rejection is considered to be complete when heart beat stops. Increases of graft survival are obtained in animals treated with a compound of formula I administered orally at a daily dose of 1 to 30 mg/kg.

Human recombinant PKCη = biological target: T3, Human recombinant PKCη (Homo sapiens, UniProt P24723); test: Protein Kinase Cη Assay; type: biochemical; settings: 10 μM ATP
T3 construct: purchased PanVera
T3 sequence (P24723 whole entry): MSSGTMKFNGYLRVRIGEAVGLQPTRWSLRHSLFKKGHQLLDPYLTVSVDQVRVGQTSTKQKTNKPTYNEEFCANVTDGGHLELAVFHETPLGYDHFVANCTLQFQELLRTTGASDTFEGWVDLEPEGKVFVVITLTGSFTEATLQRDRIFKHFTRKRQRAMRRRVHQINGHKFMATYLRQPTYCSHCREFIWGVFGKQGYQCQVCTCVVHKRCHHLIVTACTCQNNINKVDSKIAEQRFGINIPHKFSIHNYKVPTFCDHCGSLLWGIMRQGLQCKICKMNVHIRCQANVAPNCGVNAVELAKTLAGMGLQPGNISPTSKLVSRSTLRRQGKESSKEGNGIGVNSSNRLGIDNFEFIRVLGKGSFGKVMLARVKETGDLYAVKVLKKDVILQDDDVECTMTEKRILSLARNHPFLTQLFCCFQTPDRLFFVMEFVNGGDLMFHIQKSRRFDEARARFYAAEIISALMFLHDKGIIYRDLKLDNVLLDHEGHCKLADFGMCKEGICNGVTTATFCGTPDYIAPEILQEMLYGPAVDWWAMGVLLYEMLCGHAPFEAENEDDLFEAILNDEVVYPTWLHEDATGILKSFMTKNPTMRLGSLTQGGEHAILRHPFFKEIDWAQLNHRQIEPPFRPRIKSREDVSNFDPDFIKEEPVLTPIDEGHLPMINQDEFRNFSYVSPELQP
Description: as §1

Human recombinant PKCδ = biological target: T4, Human recombinant PKCδ (Homo sapiens, UniProt Q05655); test: Protein Kinase Cδ Assay; type: biochemical; settings: 10 μM ATP
T4 construct: purchased Oxford Biomedical Research
T4 sequence (Q05655 whole entry): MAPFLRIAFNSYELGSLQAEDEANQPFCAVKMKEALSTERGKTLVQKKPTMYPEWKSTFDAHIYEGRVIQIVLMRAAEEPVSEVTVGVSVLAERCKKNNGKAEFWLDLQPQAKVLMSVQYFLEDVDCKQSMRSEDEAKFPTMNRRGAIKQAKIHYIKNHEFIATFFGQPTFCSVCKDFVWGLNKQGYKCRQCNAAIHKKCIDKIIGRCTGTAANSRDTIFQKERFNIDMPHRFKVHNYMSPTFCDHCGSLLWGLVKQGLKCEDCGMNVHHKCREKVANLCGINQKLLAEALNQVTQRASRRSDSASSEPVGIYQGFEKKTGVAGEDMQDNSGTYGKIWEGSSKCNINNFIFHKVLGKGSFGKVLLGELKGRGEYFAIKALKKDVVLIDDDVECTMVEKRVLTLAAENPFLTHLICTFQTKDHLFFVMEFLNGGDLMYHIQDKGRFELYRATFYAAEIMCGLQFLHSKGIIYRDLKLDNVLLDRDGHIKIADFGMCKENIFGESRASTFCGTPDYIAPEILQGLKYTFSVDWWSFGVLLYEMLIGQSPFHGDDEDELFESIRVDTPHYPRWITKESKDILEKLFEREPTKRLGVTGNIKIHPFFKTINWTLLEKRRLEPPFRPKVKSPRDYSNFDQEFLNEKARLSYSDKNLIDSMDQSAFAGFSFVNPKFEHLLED
Description: as §1

Human recombinant PKCβ1 = biological target: T5, Human recombinant PKCβ1 (Homo sapiens, UniProt P05771); test: Protein Kinase Cβ1 Assay; type: biochemical; settings: human recombinant PKCβ1, 10 μM ATP
T5 construct: purchased Oxford Biomedical Research
T5 sequence (P05771 whole entry): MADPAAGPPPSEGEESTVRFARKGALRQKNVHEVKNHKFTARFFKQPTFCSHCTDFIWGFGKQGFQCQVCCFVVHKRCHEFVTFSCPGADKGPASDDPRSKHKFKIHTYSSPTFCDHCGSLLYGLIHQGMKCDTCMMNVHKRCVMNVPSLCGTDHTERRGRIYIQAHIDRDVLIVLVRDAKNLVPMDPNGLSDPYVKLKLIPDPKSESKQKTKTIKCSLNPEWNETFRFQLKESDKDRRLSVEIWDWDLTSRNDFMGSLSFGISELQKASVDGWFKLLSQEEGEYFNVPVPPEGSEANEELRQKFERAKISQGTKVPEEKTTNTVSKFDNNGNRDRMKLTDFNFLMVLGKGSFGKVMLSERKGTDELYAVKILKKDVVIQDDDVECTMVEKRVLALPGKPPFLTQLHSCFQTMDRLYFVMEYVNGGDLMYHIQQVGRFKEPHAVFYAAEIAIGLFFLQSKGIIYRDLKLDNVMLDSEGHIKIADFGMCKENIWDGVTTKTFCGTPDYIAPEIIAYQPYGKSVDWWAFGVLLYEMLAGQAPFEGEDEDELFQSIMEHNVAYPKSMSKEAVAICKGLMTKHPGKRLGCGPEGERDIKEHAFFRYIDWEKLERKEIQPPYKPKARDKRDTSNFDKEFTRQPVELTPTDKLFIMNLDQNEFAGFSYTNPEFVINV
Description: as §1

IC50 (Human recombinant PKCε): 0.02 ± 0.007 µM
SMILES: Cc1cccc2c(C3=C(c4nc(N5CCN(C)CC5)nc5ccccc45)C(=O)NC3=O)c[nH]c12 [Example 139]

IC50 (Human recombinant PKCθ): < 0.01 µM
IC50 [1]: 0.042 ± 0.012 µM
IC50 [2]: 0.168 ± 0.02 µM
SMILES: CN1CCN(c2nc(C3=C(c4c[nH]c5ccccc45)C(=O)NC3=O)c3ccccc3n2)CC1 [Example 56, 3-(1.H.-indol-3-yl)-4-[2-(4-methyl-piperazin-1-yl)-quinazolin-4-yl]-pyrrole-2,5-dione]

The remaining lines, values behind:

SMILES: Cn1cc(C2=C(c3nc(N4CCNC5(CC5)C4)nc4ccccc34)C(=O)NC2=O)c2ccccc21 [Example 100]
IC50 (Human recombinant PKCα): 0.039 ± 0.015 µM
graft survival [3]: significantly increases the graft survival

SMILES: CC(C)N1CCN(c2nc(C3=C(c4c[nH]c5ccccc45)C(=O)NC3=O)c3ccccc3n2)CC1 [Example 85]
IC50 (Human recombinant PKCη): 0.05 ± 0.009 µM

SMILES: CN1CCN(c2cc3ccccc3c(C3=C(c4c[nH]c5ccccc45)C(=O)NC3=O)n2)CC1 [Example 181, 3-(1.H.-Indol-3-yl)-4-[3-(4-methyl-piperazin-1-yl)-isoquinolin-1-yl]-pyrrole-2,5-dione]
IC50 (Human recombinant PKCδ): 0.018 ± 0.008 µM

SMILES: CN1CCN(c2cc(C3=C(c4c[nH]c5ccccc45)C(=O)NC3=O)c3ccccc3n2)CC1 [Example 163, 3-(1.H.-indol-3-yl)-4-[2-(4-methyl-piperazin-1-yl)-quinolin-4-yl]-pyrrole-2,5-dione]
IC50 (Human recombinant PKCβ1): 0.008 ± 0.002 µM
